Assay [1] has as its system MCF7. The assay is described as follows: Cytotoxicity against human MCF7 cells after 72 hrs by CCK8 assay. It is filed as functional, cell-based. On the technique in general: Tetrazolium dyes change colour on reduction, which living cells bring about.
In assay [2] the test system is MCF7. The assay is described as follows: Cytotoxicity against human MCF7 cells at 1 x 10^-5 M after 72 hrs by CCK8 assay. As to conditions: for inhibition at 10 µM: MCF7, 72 h. The assay is classed as functional.
A short description of assay [3]: Cytotoxicity against human MDST8 cells after 72 hrs by CCK8 assay. The assay is classed as functional, cell-based.
The nature of assay [4]: (§1) Cytotoxicity against human MDST8 cells at 1 x 10^-5 M after 72 hrs by CCK8 assay. It is filed as functional. Particulars: MDST8, 72 h.
The next assay concerns MDST8. The description is as §1. It is filed as functional.
A short description of assay [5]: Cytotoxicity against human MDST8 cells at 1 x 10^-8 M after 72 hrs by CCK8 assay. It is filed as functional. Particulars: MDST8, 72 h.
[6] abbreviates: Homo sapiens, MCF7, 72 h, read-out: IC50.
Setting [7] is: Homo sapiens, MDST8, 72 h, read-out: IC50.

Activity calls are given as the source filed them. The calls are words filed in the database; no cut-off is given here.

The IC50 is the concentration that inhibits the measured activity by half. By inhibition is commonly meant the percentage by which the read-out fell short of the control. Turning to `CC(C)(C)[C@@H](CO)NC(=O)[C@H]1OC(O)(CO)[C@@H](O)[C@@H]1O` (single isomer, unassigned), in the assay with MCF7 [1] (mcf7), the IC50 result is “Active”. In addition, the inhibition result in the assay with MCF7 [2] was “Active”.

Take `O=C(Nc1ccncc1)[C@H]1O[C@@H](O)[C@H](O)[C@@H](O)[C@@H]1O`: the IC50 in the assay on MCF7 [1] (setting [6]) amounted to 190 nM.

For the compound `CC(=O)O[C@@H]1O[C@H](C(=O)N[C@H]2CN(Cc3ccccc3)C[C@@H]2NC(=O)[C@H]2O[C@@H](OC(C)=O)[C@H](OC(C)=O)[C@@H](OC(C)=O)[C@@H]2OC(C)=O)[C@@H](OC(C)=O)[C@H](OC(C)=O)[C@H]1OC(C)=O`, in assay [3] (setting [7]), the IC50 was determined as 100 nM.

In the case of `O=C(N[C@H](CO)c1ccccc1)[C@H]1O[C@](O)(CO)[C@@H](O)[C@@H]1O`, the IC50 entry (in the assay on MCF7 [1] (mcf7); in assay [3] (mdst8)) was “Not Active” each time.

Consider `O=C(N[C@H](CO)Cc1ccccc1)[C@H]1OC(O)(CO)[C@@H](O)[C@@H]1O` (single isomer, unassigned), for which the IC50 entry (with MCF7 [1] (mcf7); in assay [3] (mdst8)) was “Not Active” in each case.

On to `CC(C)[C@@H](CO)NC(=O)[C@H]1OC(O)(CO)[C@@H](O)[C@@H]1O` (single isomer, unassigned), for which the IC50 entry in assay [3] (mdst8) was “Active”. Besides, the inhibition at 10 µM in assay [4] was found to be 80%.

In the case of `CC(=O)O[C@@H]1O[C@H](C(=O)NCCO)[C@@H](OC(C)=O)[C@H](OC(C)=O)[C@H]1OC(C)=O`, the IC50 result in the assay with MCF7 [1] (mcf7) is listed as “Active”; in assay [3] (mdst8) it was “Not Active”. Besides, in the assay on MCF7 [2], the inhibition at 10 µM is greater than 60%.

Turning to `CC(=O)O[C@@H]1O[C@H](C(=O)N[C@H](CO)C(C)C)[C@@H](OC(C)=O)[C@H](OC(C)=O)[C@H]1OC(C)=O`, in the assay with MDST8, the inhibition result was “Active”.

For the compound `CC(=O)O[C@@H]1O[C@H](C(=O)N[C@H](CO)Cc2ccccc2)[C@@H](OC(C)=O)[C@H](OC(C)=O)[C@H]1OC(C)=O`, the IC50 result (with MCF7 [1] (mcf7); in assay [3] (mdst8)) was “Not Active” throughout.

As to `O=C(NCCO)[C@H]1O[C@](O)(CO)[C@@H](O)[C@@H]1O`, the IC50 result with MCF7 [1] (mcf7) is “Active”; in assay [3] (mdst8) it was “Not Active”. This compound also gave an inhibition at 10 µM in the assay on MCF7 [2] greater than 60%.

Consider `O=C(NCCCO)[C@H]1O[C@](O)(CO)[C@@H](O)[C@@H]1O`, for which the figures for the IC50 result (with MCF7 [1] (mcf7); in assay [3] (mdst8)) were “Active” and “Not Active”, respectively. This compound returned an inhibition at 10 µM in the assay with MCF7 [2] greater than 60%.

On to `CC(=O)O[C@@H]1O[C@H](C(=O)N[C@H](CO)c2ccccc2)[C@@H](OC(C)=O)[C@H](OC(C)=O)[C@H]1OC(C)=O`, for which the IC50 entry (with MCF7 [1] (mcf7); in assay [3] (mdst8)) was “Not Active” throughout.

Turning to `CC(=O)O[C@@H]1O[C@H](C(=O)N2CCCC2)[C@@H](OC(C)=O)[C@H](OC(C)=O)[C@H]1OC(C)=O`, in the assay with MCF7 [1] (setting [6]), the IC50 stood at 1000 nM.

Take `O=c1[nH]cc(F)c(=O)[nH]1` [FLUOROURACIL]: the half-maximal inhibitory concentration (IC50) in the assay on MCF7 [1] (setting [6]) is 520 nM; in assay [3] (setting [7]) it was 64 nM. Further, the inhibition at 10 µM came to 83% in assay [4] and 60% with MCF7 [2].

Regarding `CC(=O)O[C@@H]1O[C@H](C(=O)NCCCO)[C@@H](OC(C)=O)[C@H](OC(C)=O)[C@H]1OC(C)=O`, the IC50 result was “Active” in the assay on MCF7 [1] (mcf7) and “Not Active” in assay [3] (mdst8). For the same compound, the inhibition at 10 µM in the assay on MCF7 [2] is greater than 60%.

Take `CC(=O)O[C@@H]1O[C@H](C(=O)NCCCBr)[C@@H](OC(C)=O)[C@H](OC(C)=O)[C@H]1OC(C)=O`: the IC50 result was “Not Active” in the assay on MCF7 [1] (mcf7) and 100 nM in assay [3] (setting [7]). Besides, the inhibition at 10 µM in assay [4] is greater than 90%. In assay [5], this compound displayed an inhibition at 0.01 µM of 50%.

On to `C=CCOC(=O)[C@H]1O[C@@H](OC(C)=O)[C@H](OC(C)=O)[C@@H](OC(C)=O)[C@@H]1OC(C)=O`, for which the IC50 in the assay on MCF7 [1] (setting [6]) was 4500 nM.
